Experimental data as given in patent publication US20090099195A1 (ASTRAZENECA AB, priority 2007, published 2009).

How the values were obtained:
[1] = target: T1, hP2X3 (human Purinergic P2X receptors subtype 3), clone B (Homo sapiens, UniProt P56373); assay: hP2X3 FLIPR calcium (Fluo-4) antagonist assay, clone B; conditions: Human P2X3 FLIPR Clone B IC50 (nM), RLE cells expressing hP2X3 clone B (NM_002559); agonist 500 nM α,β-methylene-ATP
T1 sequence (P56373 1-397): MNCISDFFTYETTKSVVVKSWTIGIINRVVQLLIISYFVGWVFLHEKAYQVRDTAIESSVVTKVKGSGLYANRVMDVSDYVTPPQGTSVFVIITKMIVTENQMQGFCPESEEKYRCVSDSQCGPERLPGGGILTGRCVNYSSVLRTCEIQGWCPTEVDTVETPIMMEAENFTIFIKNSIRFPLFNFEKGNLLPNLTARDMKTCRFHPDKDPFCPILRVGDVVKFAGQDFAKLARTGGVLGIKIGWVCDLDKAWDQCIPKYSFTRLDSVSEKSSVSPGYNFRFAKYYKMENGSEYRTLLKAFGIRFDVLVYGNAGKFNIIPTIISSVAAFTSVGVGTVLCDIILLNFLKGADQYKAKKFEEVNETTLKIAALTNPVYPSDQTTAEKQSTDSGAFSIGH

[2] = target: T2, hP2X3 (human Purinergic P2X receptors subtype 3), clone A (Homo sapiens, UniProt P56373); assay: hP2X3 FLIPR calcium (Fluo-4) antagonist assay, clone A; conditions: Human P2X3 FLIPR Clone A Mean IC50 (nM), RLE cells expressing hP2X3 clone A (AB016608); agonist 500 nM α,β-methylene-ATP
T2 sequence (P56373 1-397): T1 sequence (P56373 1-397)
Experimental: The assay used a calcium indicator dye (Fluo-4) that emits fluorescence, the intensity of which is related to the concentration of calcium that entered the cell when P2X3 was activated and the channel opened. Activation of hP2X3 or rat P2X3 and rat P2X2/3 (from the coexpression of rat P2X3 and rat P2×2) is elicited the by P2X3 agonist α,β methylene-ATP (Sigma M6517), and the resulting fluorescence is measured with a FLIPR II™ instrument (Molecular Devices). Compounds are tested for their ability to inhibit the agonist-induced fluorescent signal.
For the rat P2X2/3 HEK-TREX cells, induction of the rat P2X3 expression is used to generate the rat P2X2/3 channels in HEK-TREX cells and performed by addition of 1 μg/mL tetracycline (Invitrogen) 24 h prior to compounds testing to the HEK-TREX expressing the rat P2X2 constitutively. On the day of the experiment, the cells and test compounds are prepared as follows. […] After preparing the compounds, the medium is removed from the cell plates by inversion. A loading solution of 30 μL assay buffer containing 4 μM of the calcium indicator dye FLUO-4 AM (Molecular Probes F14202) is added to each well using a Multidrop (Labsystems). […] The incubation is terminated by washing the cells four times in assay buffer using a Skatron Embla (Molecular Devices), and 25 μL of assay buffer was left in each well. Cell plates are then transferred to the FLIPR. Experiments are initiated by measuring a baseline fluorescence reading for 10 seconds, followed by the addition of 12.5 μL of cpds and data sampling for a total 280 seconds. The experiments are terminated by addition of 12.5 μL of a reference agonist (500 nM α,β-methylene-ATP) or buffer, producing a final assay volume of 50 μL followed by data sampling for an additional 280 seconds.
In P2X3 antagonist experiments (human and rat assays) data are analysed as normalised maximal peak fluorescence monitored following agonist addition and calculated as percent of relative fluorescent counts from control agonist. The dose-response antagonist inhibition curves are analyzed in a 4-parameter sigmoidal fit using a non-linear curve-fitting program (XLfit version 5.0.6, ID Business Solutions Limited, Guildford, UK).

CC(C)N1Cc2c(nc(N3CCN(C)C(=O)C3)nc2N(C)Cc2cc3ccccc3cn2)C1=O [Example 200, 6-isopropyl-4-((isoquinolin-3-ylmethyl)(methyl)amino)-2-(4-methyl-3-oxopiperazin-1-yl)-5H-pyrrolo[3,4-d]pyrimidin-7(6H)-one]
IC50 [1]: 790 nM
IC50 [2]: 501 nM

CC(=O)N1CCN(c2nc3c(c(N4CCCC4c4ccc(F)cc4)n2)CN(C(C)C)C3=O)CC1 (stereo not shown) [Example 292, 2-(4-acetylpiperazin-1-yl)-4-[2-(4-fluorophenyl)pyrrolidin-1-yl]-6-(1-methylethyl)-5,6-dihydro-7H-pyrrolo[3,4-d]pyrimidin-7-one]
IC50 [1]: 3600 nM
IC50 [2]: 4950 nM

CC(=O)N1CCN(c2nc3c(c(N4CCCC4c4ccc(C)cc4)n2)CN(C(C)C)C3=O)CC1 (stereo not shown) [Example 296, 2-(4-acetylpiperazin-1-yl)-6-(1-methylethyl)-4-[2-(4-methylphenyl)pyrrolidin-1-yl]-5,6-dihydro-7H-pyrrolo[3,4-d]pyrimidin-7-one]
IC50 [1]: 1400 nM
IC50 [2]: 1190 nM

CCC(C)N1Cc2c(nc(N3CCN(C(C)=O)CC3)nc2N(CC)Cc2cc3ccccc3cn2)C1=O (single isomer, unassigned) [Example 318, 2-(4-acetylpiperazin-1-yl)-4-[ethyl(isoquinolin-3-ylmethyl)amino]-6-(1-methylpropyl)-5,6-dihydro-7H-pyrrolo[3,4-d]pyrimidin-7-one]
IC50 [1]: 41 nM
IC50 [2]: 43 nM

CCOc1ccc([C@H](CO)Nc2nc(N3CCN(C(C)=O)CC3)nc3c2CN(C(C)C)C3=O)cc1 [Example 180, (R)-2-(4-acetylpiperazin-1-yl)-4-(1-(4-ethoxyphenyl)-2-hydroxyethylamino)-6-isopropyl-5H-pyrrolo[3,4-d]pyrimidin-7(6H)-one]
IC50 [1]: 5800 nM
IC50 [2]: 7120 nM

CCOc1ccc([C@@H](C)Nc2nc(N3CCN(C(C)=O)CC3)nc3c2CN([C@@H](C)CC)C3=O)cc1F [Example 320, 2-(4-acetylpiperazin-1-yl)-4-{[(1R)-1-(4-ethoxy-3-fluorophenyl)ethyl]amino}-6-[(1S)-1-methylpropyl]-5,6-dihydro-7H-pyrrolo[3,4-d]pyrimidin-7-one]
IC50 [1]: 54 nM
IC50 [2]: 69.1 nM

CCOc1ccc([C@@H](C)Nc2nc(N3CCN(C)C(=O)C3)nc3c2CN(C(C)C)C3=O)cc1F [Example 201, (R)-4-(1-(4-ethoxy-3-fluorophenyl)ethylamino)-6-isopropyl-2-(4-methyl-3-oxopiperazin-1-yl)-5H-pyrrolo[3,4-d]pyrimidin-7(6H)-one]
IC50 [1]: 410 nM
IC50 [2]: 723 nM

CCOc1ccc([C@H](Nc2nc(N3CCN(C(C)=O)CC3)nc3c2CN(C(C)C)C3=O)C2CC2)cc1 [Example 185, (R)-2-(4-acetylpiperazin-1-yl)-4-(cyclopropyl(4-ethoxyphenyl)methylamino)-6-isopropyl-5H-pyrrolo[3,4-d]pyrimidin-7(6H)-one]
IC50 [1]: 74 nM
IC50 [2]: 79.7 nM

CC[C@H](C)N1Cc2c(nc(N3CCN(C(C)=O)CC3)nc2N(C)Cc2cnc3ccccc3c2)C1=O [Example 319, 2-(4-acetylpiperazin-1-yl)-6-[(1S)-1-methylpropyl]-4-[methyl(quinolin-3-ylmethyl)amino]-5,6-dihydro-7H-pyrrolo[3,4-d]pyrimidin-7-one]
IC50 [1]: 47 nM
IC50 [2]: 53.6 nM

COCc1ccc(CC2CCCN2c2nc(N3CCN(C(C)=O)CC3)nc3c2CN(C(C)C)C3=O)cc1 (stereo not shown) [Example 293, 2-(4-acetylpiperazin-1-yl)-4-{2-[4-(methoxymethyl)benzyl]pyrrolidin-1-yl}-6-(1-methylethyl)-5,6-dihydro-7H-pyrrolo[3,4-d]pyrimidin-7-one]
IC50 [1]: 1400 nM
IC50 [2]: 1590 nM

CC(=O)N1CCN(c2nc(N[C@H](C)c3cc(F)cc(C(F)(F)F)c3)c3c(n2)C(=O)N(C(C)C)C3)CC1 [Example 184, (R)-2-(4-acetylpiperazin-1-yl)-4-(1-(3-fluoro-5-(trifluoromethyl)phenyl)ethylamino)-6-isopropyl-5H-pyrrolo[3,4-d]pyrimidin-7(6H)-one]
IC50 [1]: 87 nM
IC50 [2]: 101 nM

CCN(c1nc(N2CCN(C(C)=O)CC2)nc2c1CN(C(C)C)C2=O)C(C)c1ccc2ncccc2c1 (single isomer, unassigned) [Example 257, 2-(4-acetylpiperazin-1-yl)-4-(ethyl(1-(quinolin-6-yl)ethyl)amino)-6-isopropyl-5H-pyrrolo[3,4-d]pyrimidin-7(6H)-one]
IC50 [1]: 80 nM
IC50 [2]: 83.2 nM

CC(=O)c1ccc(CC2CCCN2c2nc(N3CCN(C(C)=O)CC3)nc3c2CN(C(C)C)C3=O)cc1 (stereo not shown) [Example 294, 4-[2-(4-acetylbenzyl)pyrrolidin-1-yl]-2-(4-acetylpiperazin-1-yl)-6-(1-methylethyl)-5,6-dihydro-7H-pyrrolo[3,4-d]pyrimidin-7-one]
IC50 [1]: 980 nM
IC50 [2]: 1840 nM

CC(=O)N1CCN(c2nc3c(c(N(C)C(C)c4ccc5ncccc5c4)n2)CN(C(C)C)C3=O)CC1 (single isomer, unassigned) [Example 261, 2-(4-acetylpiperazin-1-yl)-6-isopropyl-4-(methyl(1-(quinolin-6-yl)ethyl)amino)-5H-pyrrolo[3,4-d]pyrimidin-7(6H)-one]
IC50 [1]: 64 nM
IC50 [2]: 71.1 nM

CCOc1ccc([C@@H](CO)Nc2nc(N3CCN(C(C)=O)CC3)nc3c2CN(C(C)C)C3=O)cc1 [Example 189, (S)-2-(4-acetylpiperazin-1-yl)-4-(1-(4-ethoxyphenyl)-2-hydroxyethylamino)-6-isopropyl-5H-pyrrolo[3,4-d]pyrimidin-7(6H)-one]
IC50 [1]: 79 nM
IC50 [2]: 76.6 nM

CCOc1ccc(CC(C)(C)Nc2nc(N3CCN(C(C)=O)CC3)nc3c2CN(C(C)C)C3=O)cc1 [Example 198, 2-(4-acetylpiperazin-1-yl)-4-(1-(4-ethoxyphenyl)-2-methylpropan-2-ylamino)-6-isopropyl-5H-pyrrolo[3,4-d]pyrimidin-7(6H)-one]
IC50 [1]: 640 nM
IC50 [2]: 1230 nM

CCOc1ccc([C@@H](C)Nc2nc(N3CCN(C(C)=O)CC3)nc3c2CN(C(C)C)C3=O)c(OC)c1 [Example 202, (R)-2-(4-acetylpiperazin-1-yl)-4-(1-(4-ethoxy-2-methoxyphenyl)ethylamino)-6-isopropyl-5H-pyrrolo[3,4-d]pyrimidin-7(6H)-one]
IC50 [1]: 51 nM
IC50 [2]: 47 nM

CC(=O)N1CCN(c2nc(NCc3cc4ccccc4c(C)n3)c3c(n2)C(=O)N(C(C)C)C3)CC1 [Example 259, 2-(4-acetylpiperazin-1-yl)-6-isopropyl-4-((1-methylisoquinolin-3-yl)methylamino)-5H-pyrrolo[3,4-d]pyrimidin-7(6H)-one]
IC50 [1]: 16 nM
IC50 [2]: 27.2 nM

CCC(C)N1Cc2c(nc(N3CCN(C(C)=O)CC3)nc2N(CC)Cc2cc3ccccc3cn2)C1=O (single isomer, unassigned) [Example 317, 2-(4-acetylpiperazin-1-yl)-4-[ethyl(isoquinolin-3-ylmethyl)amino]-6-(1-methylpropyl)-5,6-dihydro-7H-pyrrolo[3,4-d]pyrimidin-7-one]
IC50 [1]: 32 nM
IC50 [2]: 40 nM

CC[C@H](C)N1Cc2c(NCc3cnc4ccccc4c3)nc(N3CCN(C(C)=O)CC3)nc2C1=O [Example 316, 2-(4-acetylpiperazin-1-yl)-6-[(1S)-1-methylpropyl]-4-[(quinolin-3-ylmethyl)amino]-5,6-dihydro-7H-pyrrolo[3,4-d]pyrimidin-7-one]
IC50 [1]: 28 nM
IC50 [2]: 35.5 nM
